Species: Rattus norvegicus
Assay: DrugMatrix - Regimen: Daily Repeat
Assay type: toxicity, organism-based, Sprague-Dawley
Design: regimen Daily Repeat, gender Male, age 6-8 weeks
Details: in vivo, po, route oral GAVAGE, vehicle .5 % CMC; for ABSOLUTE BASOPHIL / ABSOLUTE EOSINOPHIL / ABSOLUTE LYMPHOCYTE / ABSOLUTE MONOCYTE / ABSOLUTE SEGMENTED NEUTROPHIL / BASOPHIL / EOSINOPHIL / ERYTHROCYTE COUNT / HEMATOCRIT / HEMOGLOBIN / LEUKOCYTE COUNT / LYMPHOCYTE / MEAN CORPUSCULAR HEMOGLOBIN / MEAN CORPUSCULAR HEMOGLOBIN CONCENTRATION / MEAN CORPUSCULAR VOLUME / MONOCYTE / NEUTROPHIL / NUCLEATED RED BLOOD CELLS / PLATELET COUNT: tissue Blood; for ALANINE AMINOTRANSFERASE / ALBUMIN / ALKALINE PHOSPHATASE / ASPARTATE AMINOTRANSFERASE / BLOOD UREA NITROGEN / CARBON DIOXIDE / CHLORIDE / CHOLESTEROL / CREATINE PHOSPHOKINASE / CREATININE / GLUCOSE / LACTATE DEHYDROGENASE / LIPASE / PHOSPHORUS / POTASSIUM / SODIUM / TOTAL BILIRUBIN / TOTAL PROTEIN / URIC ACID: tissue Plasma
[1] = 22 mg/kg, 72 h, dose level High, time 3 day
[2] = 22 mg/kg, 120 h, dose level High, time 5 day
[3] = […], 72 h, dose 2.2 mg/Kg, dose level Low, time 3 day
[4] = […], 120 h, dose 2.2 mg/Kg, dose level Low, time 5 day

## Cc1cc(C(C#N)c2ccc(Cl)cc2)c(Cl)cc1NC(=O)c1cc(I)cc(I)c1O (configuration not stated) [CLOSANTEL]
[1]
  ABSOLUTE BASOPHIL: 0 CELLS/uL
  ABSOLUTE EOSINOPHIL: 101.33 CELLS/uL
  ABSOLUTE LYMPHOCYTE: 16742.67 CELLS/uL
  ABSOLUTE MONOCYTE: 54 CELLS/uL
  ABSOLUTE SEGMENTED NEUTROPHIL: 802 CELLS/uL
  BASOPHIL: 0%
  EOSINOPHIL: 0.67%
  ERYTHROCYTE COUNT: 4.94 x10E6/uL
  HEMATOCRIT: 31.43%
  HEMOGLOBIN: 12.7 G/DL
  LEUKOCYTE COUNT: 17.7 x10E3/uL
  LYMPHOCYTE: 94.67%
  MEAN CORPUSCULAR HEMOGLOBIN: 25.77 pg
  MEAN CORPUSCULAR HEMOGLOBIN CONCENTRATION: 40.4 G/DL
  MEAN CORPUSCULAR VOLUME: 63.77 fL
  MONOCYTE: 0.33%
  NEUTROPHIL: 4.33%
  NUCLEATED RED BLOOD CELLS: 0 /100WBC
  PLATELET COUNT: 1110.67 x10E3/uL
  ALANINE AMINOTRANSFERASE: 49.67 u/L
  ALBUMIN: 4.27 G/DL
  ALKALINE PHOSPHATASE: 612.33 u/L
  ASPARTATE AMINOTRANSFERASE: 122.67 u/L
  BLOOD UREA NITROGEN: 16.33 mg/dL
  CARBON DIOXIDE: 27.67 mmol/L
  CHLORIDE: 103.67 MEQ/L
  CHOLESTEROL: 73 mg/dL
  CREATINE PHOSPHOKINASE: 369 u/L
  CREATININE: 0.19 mg/dL
  GLUCOSE: 171.33 mg/dL
  LACTATE DEHYDROGENASE: 163.67 u/L
  LIPASE: 9 u/L
  PHOSPHORUS: 12.43 mg/dL
  POTASSIUM: 6.8 MEQ/L
  SODIUM: 145.83 MEQ/L
  TOTAL BILIRUBIN: 0.2 mg/dL
  TOTAL PROTEIN: 5.73 G/DL
  URIC ACID: 2.13 mg/dL
[2]
  ABSOLUTE BASOPHIL: 0 CELLS/uL
  ABSOLUTE EOSINOPHIL: 0 CELLS/uL
  ABSOLUTE LYMPHOCYTE: 18393.33 CELLS/uL
  ABSOLUTE MONOCYTE: 203.33 CELLS/uL
  ABSOLUTE SEGMENTED NEUTROPHIL: 2403.33 CELLS/uL
  BASOPHIL: 0%
  EOSINOPHIL: 0%
  ERYTHROCYTE COUNT: 5.7 x10E6/uL
  HEMATOCRIT: 36.13%
  HEMOGLOBIN: 14.47 G/DL
  LEUKOCYTE COUNT: 21 x10E3/uL
  LYMPHOCYTE: 87.33%
  MEAN CORPUSCULAR HEMOGLOBIN: 25.4 pg
  MEAN CORPUSCULAR HEMOGLOBIN CONCENTRATION: 40.03 G/DL
  MEAN CORPUSCULAR VOLUME: 63.4 fL
  MONOCYTE: 1%
  NEUTROPHIL: 11.67%
  NUCLEATED RED BLOOD CELLS: 0.33 /100WBC
  PLATELET COUNT: 1280.33 x10E3/uL
  ALANINE AMINOTRANSFERASE: 76 u/L
  ALBUMIN: 4.63 G/DL
  ALKALINE PHOSPHATASE: 586.33 u/L
  ASPARTATE AMINOTRANSFERASE: 169.33 u/L
  BLOOD UREA NITROGEN: 25 mg/dL
  CARBON DIOXIDE: 32 mmol/L
  CHLORIDE: 101.67 MEQ/L
  CHOLESTEROL: 84 mg/dL
  CREATINE PHOSPHOKINASE: 365.33 u/L
  CREATININE: 0.32 mg/dL
  GLUCOSE: 141.67 mg/dL
  LACTATE DEHYDROGENASE: 335.67 u/L
  LIPASE: 11.67 u/L
  PHOSPHORUS: 11.47 mg/dL
  POTASSIUM: 7.16 MEQ/L
  SODIUM: 143.5 MEQ/L
  TOTAL BILIRUBIN: 0.2 mg/dL
  TOTAL PROTEIN: 6 G/DL
  URIC ACID: 1.9 mg/dL
[3]
  ABSOLUTE BASOPHIL: 0 CELLS/uL
  ABSOLUTE EOSINOPHIL: 27.33 CELLS/uL
  ABSOLUTE LYMPHOCYTE: 7010.67 CELLS/uL
  ABSOLUTE MONOCYTE: 50 CELLS/uL
  ABSOLUTE SEGMENTED NEUTROPHIL: 645.33 CELLS/uL
  BASOPHIL: 0%
  EOSINOPHIL: 0.33%
  ERYTHROCYTE COUNT: 5.2 x10E6/uL
  HEMATOCRIT: 33.97%
  HEMOGLOBIN: 13.53 G/DL
  LEUKOCYTE COUNT: 7.73 x10E3/uL
  LYMPHOCYTE: 90.33%
  MEAN CORPUSCULAR HEMOGLOBIN: 26.1 pg
  MEAN CORPUSCULAR HEMOGLOBIN CONCENTRATION: 39.83 G/DL
  MEAN CORPUSCULAR VOLUME: 65.4 fL
  MONOCYTE: 0.67%
  NEUTROPHIL: 8.67%
  NUCLEATED RED BLOOD CELLS: 0 /100WBC
  PLATELET COUNT: 1123.67 x10E3/uL
  ALANINE AMINOTRANSFERASE: 51 u/L
  ALBUMIN: 4.37 G/DL
  ALKALINE PHOSPHATASE: 453.33 u/L
  ASPARTATE AMINOTRANSFERASE: 101.67 u/L
  BLOOD UREA NITROGEN: 17.33 mg/dL
  CARBON DIOXIDE: 35.33 mmol/L
  CHLORIDE: 98.67 MEQ/L
  CHOLESTEROL: 78.67 mg/dL
  CREATINE PHOSPHOKINASE: 529.33 u/L
  CREATININE: 0.26 mg/dL
  GLUCOSE: 127 mg/dL
  LACTATE DEHYDROGENASE: 156.67 u/L
  LIPASE: 9.67 u/L
  PHOSPHORUS: 11.27 mg/dL
  POTASSIUM: 6.78 MEQ/L
  SODIUM: 144.6 MEQ/L
  TOTAL BILIRUBIN: 0.17 mg/dL
  TOTAL PROTEIN: 6.27 G/DL
  URIC ACID: 0.93 mg/dL
[4]
  ABSOLUTE BASOPHIL: 0 CELLS/uL
  ABSOLUTE EOSINOPHIL: 0 CELLS/uL
  ABSOLUTE LYMPHOCYTE: 9886.33 CELLS/uL
  ABSOLUTE MONOCYTE: 68.67 CELLS/uL
  ABSOLUTE SEGMENTED NEUTROPHIL: 945 CELLS/uL
  BASOPHIL: 0%
  EOSINOPHIL: 0%
  ERYTHROCYTE COUNT: 5.61 x10E6/uL
  HEMATOCRIT: 35.17%
  HEMOGLOBIN: 14 G/DL
  LEUKOCYTE COUNT: 10.9 x10E3/uL
  LYMPHOCYTE: 90.33%
  MEAN CORPUSCULAR HEMOGLOBIN: 24.93 pg
  MEAN CORPUSCULAR HEMOGLOBIN CONCENTRATION: 39.83 G/DL
  MEAN CORPUSCULAR VOLUME: 62.63 fL
  MONOCYTE: 0.67%
  NEUTROPHIL: 9%
  NUCLEATED RED BLOOD CELLS: 0 /100WBC
  PLATELET COUNT: 1205.67 x10E3/uL
  ALANINE AMINOTRANSFERASE: 49 u/L
  ALBUMIN: 4.43 G/DL
  ALKALINE PHOSPHATASE: 427.33 u/L
  ASPARTATE AMINOTRANSFERASE: 75 u/L
  BLOOD UREA NITROGEN: 18 mg/dL
  CARBON DIOXIDE: 29.67 mmol/L
  CHLORIDE: 103 MEQ/L
  CHOLESTEROL: 72.33 mg/dL
  CREATINE PHOSPHOKINASE: 164.33 u/L
  CREATININE: 0.18 mg/dL
  GLUCOSE: 146.67 mg/dL
  LACTATE DEHYDROGENASE: 113.67 u/L
  LIPASE: 8.33 u/L
  PHOSPHORUS: 13.67 mg/dL
  POTASSIUM: 7.15 MEQ/L
  SODIUM: 146.83 MEQ/L
  TOTAL BILIRUBIN: 0.23 mg/dL
  TOTAL PROTEIN: 6.6 G/DL
  URIC ACID: 1.7 mg/dL
